Results as given in US6355799B1, “Substituted benzene compounds, process for their preparation, and herbicidal and defoliant compositions containing them” (ISK Americas Incorporated, priority 1997, dated 2002).

Key:
Type in all cases: in vivo
[1] = tested on: redroot pigweed (Amaranthus retroflexus, AMARE); assay: Pre-emerge test, greenhouse herbicide activity screening; settings: pre-emerge, 14 days after application, rating scale 0-100
Procedure, shortened: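 Visual ratings on a 0-100 scale (0 no damage, 100 all plants dead) were taken at 14 days after treatment. Rates of 15-1000 g ai/ha in acetone, 187 l/ha, were sprayed onto soil one day after planting (pre-emerge) or onto 2-3 leaf plants with 0.25% v/v surfactant (post-emerge).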

[2] = tested on: field corn (Zea mays L., var. Dekalb 535, CORN); assay: Pre-emerge test, crop safety; settings: pre-emerge, 14 days after application, rating scale 0-100
Procedure, shortened: (§1)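 Rating: 0–100 visual injury, 14 DAA. Application: acetone, 187 l/ha, 15–1000 g ai/ha, flat-fan track sprayer with nozzle 40–45 cm above soil or canopy. Post-emerge runs used 0.25% v/v surfactant on 2–3 leaf plants.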

[3] = tested on: upland rice (Oryza sp., var. Tebonnet, RICE); assay: Pre-emerge test, crop safety; settings: pre-emerge, 14 days after application, rating scale 0-100
Procedure, shortened: as §1

[4] = tested on: ivyleaf morningglory (Ipomoea hederacea, IPOHE); assay: Pre-emerge test, greenhouse herbicide activity screening; settings: pre-emerge, 14 days after application, rating scale 0-100
Procedure, shortened: (§2)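 Fourteen days after spraying, crop and weed injury was graded visually from 0, no effect, to 100, every plant dead. Test substances were dissolved in acetone and applied at 15–1000 g ai/ha with a flat-fan nozzle. Application was either pre-emergence, one day after sowing, or post-emergence at the 2–3 leaf stage.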

[5] = tested on: sicklepod (Cassia obtusifolia, CASOB); assay: as above; settings: pre-emerge, 14 days after application, rating scale 0-100
Procedure, shortened: as §2

[6] = tested on: lambsquarters (Chenopodium album, CHEAL); assay: as above; settings: pre-emerge, 14 days after application, rating scale 0-100
Procedure, shortened: as §2

[7] = tested on: common ragweed (Ambrosia artemisizfolia L., AMBEL); assay: as above; settings: pre-emerge, 14 days after application, rating scale 0-100
Procedure, shortened: as §2

[8] = tested on: velvetleaf (Abutilon theophrasti, ABUTH); assay: as above; settings: pre-emerge, 14 days after application, rating scale 0-100
Procedure, shortened: as §2

[9] = tested on: barnyardgrass (Echinochloa crus-galli, ECHCG); assay: as above; settings: pre-emerge, 14 days after application, rating scale 0-100
Procedure, shortened: as §2

[10] = tested on: large crabgrass (Digitaria sanguinalis, DIGSA); assay: as above; settings: pre-emerge, 14 days after application, rating scale 0-100
Procedure, shortened: as §2

[11] = tested on: johnsongrass (Sorghum halepense, SORHA); assay: as above; settings: pre-emerge, 14 days after application, rating scale 0-100
Procedure, shortened: as §2

[12] = tested on: green foxtail (Setaria viridis, SETVI); assay: as above; settings: pre-emerge, 14 days after application, rating scale 0-100
Procedure, shortened: as §2

[13] = tested on: ivyleaf morningglory (Ipomoea hederacea, IPOHE); assay: Post-emerge test, greenhouse herbicide activity screening; settings: rating scale 0-100 (0 no damage, 100 complete death), 14 days after application
Procedure, shortened: (§3)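 Herbicidal damage is scored 0 (none) to 100 (complete plant death) two weeks after a simulated field spray. Rates span 15–1000 g ai/ha, delivered in acetone at 187 l/ha. For post-emergence treatments, plants have 2–3 leaves and the spray carries 0.25% v/v non-ionic surfactant.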

[14] = tested on: sicklepod (Cassia obtusifolia, CASOB); assay: as above; settings: rating scale 0-100 (0 no damage, 100 complete death), 14 days after application
Procedure, shortened: as §3

[15] = tested on: lambsquarters (Chenopodium album, CHEAL); assay: as above; settings: rating scale 0-100 (0 no damage, 100 complete death), 14 days after application
Procedure, shortened: as §3

[16] = tested on: common ragweed (Ambrosia artemisizfolia L., AMBEL); assay: as above; settings: Rate 63 g ai/ha; rating scale 0-100 (0 no damage, 100 complete death); 14 days after application
Procedure, shortened: as §3

[17] = tested on: velvetleaf (Abutilon theophrasti, ABUTH); assay: as above; settings: rating scale 0-100 (0 no damage, 100 complete death), 14 days after application
Procedure, shortened: as §3

[18] = tested on: barnyardgrass (Echinochloa crus-galli, ECHCG); assay: as above; settings: rating scale 0-100 (0 no damage, 100 complete death), 14 days after application
Procedure, shortened: as §3

[19] = tested on: large crabgrass (Digitaria sanguinalis, DIGSA); assay: as above; settings: rating scale 0-100 (0 no damage, 100 complete death), 14 days after application
Procedure, shortened: as §3

[20] = tested on: redroot pigweed (Amaranthus retroflexus, AMARE); assay: as above; settings: rating scale 0-100 (0 no damage, 100 complete death), 14 days after application
Procedure, shortened: as §3

[21] = tested on: johnsongrass (Sorghum halepense, SORHA); assay: as above; settings: rating scale 0-100 (0 no damage, 100 complete death), 14 days after application
Procedure, shortened: as §3

[22] = tested on: green foxtail (Setaria viridis, SETVI); assay: as above; settings: rating scale 0-100 (0 no damage, 100 complete death), 14 days after application
Procedure, shortened: as §3

[23] = tested on: field corn (Zea mays L., var. Dekalb 535, CORN); assay: Post-emerge test, crop safety; settings: rating scale 0-100 (0 no damage, 100 complete death), 14 days after application
Procedure, shortened: as §2

[24] = tested on: upland rice (Oryza sp., var. Tebonnet, RICE); assay: Post-emerge test, crop safety; settings: rating scale 0-100 (0 no damage, 100 complete death), 14 days after application
Procedure, shortened: as §2

COc1c(Cl)cc(F)c(-n2c(=O)cc(C(F)(F)F)n(C)c2=O)c1CC(C)(Cl)C(=O)OCCSC (centres unmarked) [14-48]
phytotoxicity rating AMARE ([1]; 63 g ai/ha): 90 | phytotoxicity rating AMARE ([1]; 250 g ai/ha): 100 | phytotoxicity rating CORN ([2]; 63 g ai/ha): 0 | phytotoxicity rating CORN ([2]; 250 g ai/ha): 40 | phytotoxicity rating RICE ([3]; 63 g ai/ha): 30 | phytotoxicity rating RICE ([3]; 250 g ai/ha): 70 | phytotoxicity rating IPOHE ([4]; 63 g ai/ha): 0 | phytotoxicity rating IPOHE ([4]; 250 g ai/ha): 0 | phytotoxicity rating CASOB ([5]; 63 g ai/ha): 0 | phytotoxicity rating CASOB ([5]; 250 g ai/ha): 0 | phytotoxicity rating CHEAL ([6]; 63 g ai/ha): 50 | phytotoxicity rating CHEAL ([6]; 250 g ai/ha): 100 | phytotoxicity rating AMBEL ([7]; 63 g ai/ha): 0 | phytotoxicity rating AMBEL ([7]; 250 g ai/ha): 80 | phytotoxicity rating ABUTH ([8]; 63 g ai/ha): 90 | phytotoxicity rating ABUTH ([8]; 250 g ai/ha): 100 | phytotoxicity rating ECHCG ([9]; 63 g ai/ha): 0 | phytotoxicity rating ECHCG ([9]; 250 g ai/ha): 50 | phytotoxicity rating DIGSA ([10]; 63 g ai/ha): 0 | phytotoxicity rating DIGSA ([10]; 250 g ai/ha): 70 | phytotoxicity rating SORHA ([11]; 63 g ai/ha): 0 | phytotoxicity rating SORHA ([11]; 250 g ai/ha): 0 | phytotoxicity rating SETVI ([12]; 63 g ai/ha): 0 | phytotoxicity rating SETVI ([12]; 250 g ai/ha): 50 | Post-emerge Herbicidal Activity, phytotoxicity rating IPOHE ([13]; Rate 63 g ai/ha): 0 | Post-emerge Herbicidal Activity, phytotoxicity rating IPOHE ([13]; Rate 250 g ai/ha): 100 | Post-emerge Herbicidal Activity, phytotoxicity rating CASOB ([14]; Rate 63 g ai/ha): 0 | Post-emerge Herbicidal Activity, phytotoxicity rating CASOB ([14]; Rate 250 g ai/ha): 100 | Post-emerge Herbicidal Activity, phytotoxicity rating CHEAL ([15]; Rate 63 g ai/ha): 100 | Post-emerge Herbicidal Activity, phytotoxicity rating CHEAL ([15]; Rate 250 g ai/ha): 100 | Post-emerge Herbicidal Activity, phytotoxicity rating AMBEL [16]: 80 | Post-emerge Herbicidal Activity, phytotoxicity rating ABUTH ([17]; Rate 63 g ai/ha): 100 | Post-emerge Herbicidal Activity, phytotoxicity rating ABUTH ([17]; Rate 250 g ai/ha): 100 | Post-emerge Herbicidal Activity, phytotoxicity rating ECHCG ([18]; Rate 63 g ai/ha): 50 | Post-emerge Herbicidal Activity, phytotoxicity rating ECHCG ([18]; Rate 250 g ai/ha): 100 | Post-emerge Herbicidal Activity, phytotoxicity rating DIGSA ([19]; Rate 63 g ai/ha): 70 | Post-emerge Herbicidal Activity, phytotoxicity rating DIGSA ([19]; Rate 250 g ai/ha): 90 | Post-emerge Herbicidal Activity, phytotoxicity rating AMARE ([20]; Rate 63 g ai/ha): 100 | Post-emerge Herbicidal Activity, phytotoxicity rating AMARE ([20]; Rate 250 g ai/ha): 100 | Post-emerge Herbicidal Activity, phytotoxicity rating SORHA ([21]; Rate 63 g ai/ha): 0 | Post-emerge Herbicidal Activity, phytotoxicity rating SORHA ([21]; Rate 250 g ai/ha): 90 | Post-emerge Herbicidal Activity, phytotoxicity rating SETVI ([22]; Rate 63 g ai/ha): 50 | Post-emerge Herbicidal Activity, phytotoxicity rating SETVI ([22]; Rate 250 g ai/ha): 100 | Post-emerge phytotoxicity rating CORN (crop damage) ([23]; Rate 63 g ai/ha): 40 | Post-emerge phytotoxicity rating CORN (crop damage) ([23]; Rate 250 g ai/ha): 100 | Post-emerge phytotoxicity rating RICE (crop damage) ([24]; Rate 63 g ai/ha): 70 | Post-emerge phytotoxicity rating RICE (crop damage) ([24]; Rate 250 g ai/ha): 100
